Data from patent US20230331734A1, “NOVEL SPIROPYRROLIDINE DERIVED ANTIVIRAL AGENTS” (ENANTA PHARMACEUTICALS, INC., priority 2022, published 2023).

How the values were obtained:
SARS-CoV-2 3CL-protease = SARS-CoV-2 3CL-protease (Severe acute respiratory syndrome coronavirus 2 (2019-nCoV) (SARS-CoV-2), UniProt P0DTD1); experiment: SARS-CoV-2 3C-like (3CL) protease fluorescence assay (FRET); format: biochemical; conditions: recombinant SARS-CoV-2 3CL-protease 10 nM, 30 min preincubation, substrate 40 μM, duplicate
[1] = test system: 229E human coronavirus (hCoV); experiment: microbe, parasite or virus in culture; format: cell-based; conditions: unidentified human coronavirus, MRC5, 144 h; MRC-5 cells, MOI 0.05, 6 days at 34° C., ATPlite, duplicate
norovirus = conditions: phase II randomized double-blind trial, patients; cited from earlier work

For `CC(C)CC(CC(=O)[C@@H](NC(=O)OCc1ccccc1)C(C)C)C(=O)N1C[C@]2(C[C@H]1C#N)C(=O)Nc1ccccc12` (some centres unmarked) [Example 3], the IC50 (SARS-CoV-2 3CL-protease) was over 1 µM and the EC50 [1] was over 1 µM.
For `Cc1cc(C(=O)N[C@H](C(=O)C[C@@H](Cc2ccc(F)cc2)C(=O)N2C[C@]3(C[C@H]2C#N)C(=O)Nc2ccccc23)C(C)C)no1` [Example 5], the IC50 (SARS-CoV-2 3CL-protease) was under 0.1 µM.
With `CC(C)[C@H](NC(=O)OC(C)(C)C)C(=O)C[C@@H](Cc1ccc(F)cc1)C(=O)N1C[C@]2(C[C@H]1C#N)C(=O)Nc1ccccc12` [Example 26] the IC50 (SARS-CoV-2 3CL-protease) was under 0.1 µM.
For `CCOC(=O)/C=C/[C@@H]1C[C@@]2(CN1C(=O)[C@@H](CC(=O)[C@@H](NC(=O)OC(C)(C)C)C(C)C)Cc1ccc(F)cc1)C(=O)Nc1ccccc12` [Example 25], the IC50 (SARS-CoV-2 3CL-protease) was over 1 µM.
`CCOC(=O)/C=C/[C@@H]1C[C@@]2(CN1C(=O)[C@@H](CC(=O)[C@@H](NC(=O)c1cc(C)on1)C(C)C)Cc1ccc(F)cc1)C(=O)Nc1ccccc12` [Example 6] showed an IC50 (SARS-CoV-2 3CL-protease) of over 1 µM.
With `CC(C)[C@H](NC(=O)C(F)(F)F)C(=O)CC(Cc1ccc(F)cc1)C(=O)N1C[C@]2(C[C@H]1C#N)C(=O)Nc1ccccc12` (some centres unmarked) [Example 2] the IC50 (SARS-CoV-2 3CL-protease) was 0.1 to 1 µM and the EC50 [1] was over 1 µM.
`CC(C)[C@H](NC(=O)OCc1ccccc1)C(=O)CC(Cc1ccc(F)cc1)C(=O)N1C[C@]2(C[C@H]1C#N)C(=O)Nc1ccccc12` (some centres unmarked) [Example 1] showed an IC50 (SARS-CoV-2 3CL-protease) of 0.1 to 1 µM and an EC50 [1] of over 1 µM.
In the case of `CC(=O)Oc1ccccc1C(=O)Nc1ncc([N+](=O)[O-])s1` [NTZ, nitazoxanide], the “reduction of gastroenteritis symptoms” value (norovirus) is given as 24 h.
